Results reported in patent US20250090515A1, “1-Deoxynojirimycin To Mitigate Hepatic Ischemia- Reperfusion” (KING FAISAL UNIVERSITY, priority 2023, published 2025).

Tests used:
Assay type in all cases: in vivo, Wistar male rats
H I/R-induced injury [1] = assay: Hepatic oxidative stress biomarkers in hepatic tissue homogenate after hepatic ischemia-reperfusion; conditions: compared to H I/R animals
Procedure: (§1) Wistar male rats (age: 6-8 weeks; weight: 200-230 g) were obtained from Experimental Animal Research Centre, King Saud University, Riyadh, K S A. The animals were acclimatized with standard laboratory food and water ad libitum in ventilated cages system (12 h light/dark cycles, 20.3-23.1° C.) then kept throughout the whole experiment under the same conditions.
(§2) Rats were anesthetized with isoflurane with oxygen (2%, 0.5 L/h) throughout the whole surgery, under heat control and aseptic conditions. Animals' abdomen was shaved and sterilized, and a surgical incision (about 3 cm) from the pubic to the sternum was executed. The portal triad, comprising the hepatic artery, portal vein, and common bile duct, was clamped using a micro-vascular clamp for 60 min to prompt ischemia. Hepatic reperfusion was accompanied by releasing the micro-vascular clamp and permitted reperfusion for six hours. The sham-operated animals were subjected to all the procedures that occurred during H I/R, deprived of blood flow blockage.
(§3) 1-Deoxynojirimycin hydrochloride (1-DNJ) was purchased from Merck (Merck & Co., USA, product number D 9305). 1-DNJ was administered by gavage orally after being suspended in 1% carboxymethyl cellulose (CMC) solution. 1-DNJ dose (50 and 100 mg/kg) selection was based on previous studies. A total of 30 Wistar rats were haphazardly assigned into five groups (six rats/group). The sham group in which animals were given vehicle (1% CMC) orally for two weeks and subjected to sham steps. 1-DNJ+Sham group in which rats were administered 1-DNJ (100 mg/kg/day) for two weeks and then subjected to sham steps. Third group, the H I/R group, in which rats were administered 1% CMC for two weeks and then hepatic ischemia for 60 min followed by 6 hours reperfusion was implemented. Finally, 1-DNJ 50+H I/R and 1-DNJ 100+H I/R groups in which rats were pretreated with 1-DNJ (50, 100 mg/kg/day) respectively orally for two weeks, then subjected to hepatic I/R surgical procedure.
(§4) Once the reperfusion period was completed, animals' blood was obtained through the hearts, centrifuged at 4000×g for 15 min at 4° C., and stored at −20° C. to be utilized in the biochemical estimation of liver function tests, including ALT, AST, ALP, and LDH. Moreover, hepatic tissues were isolated, washed in cool PBS, and distributed in three portions. The first part was homogenized with PBS, centrifuged at 10,000×g for 15 min at 4° C., and consumed to evaluate oxidative stress and ELISA biomarkers. The second portion was stored at −20° C. for subsequent qRT-PCR and western blot analysis. The third part was fixed with 10% formalin buffered saline to estimate the histopathological variations as well as the immunohistochemical manifestation.
(§5) One-way ANOVA followed by Tukey-Kramer as a post hoc test were executed for multiple comparisons between different experimental groups. p as a level of probability was set at 0.05, indicating the significance level. All statistical analyses were performed using Graph Pad software (version 8, CA, USA).
Oxidative stress-related biomarkers, including antioxidant and lipid peroxidation enzymes such as CAT, SOD, GST, GSH, MDA, and NO contents, were monitored in the hepatic tissue homogenate. Malondialdehyde (MDA; ab238537), glutathione (GSH, ab65322), glutathione-s-transferase (GST, ab65326), nitric oxide (NO, ab272517) assay kits were purchased from Abeam Inc. (Cambridge, UK). Superoxide dismutase (SOD; MBS036924) and catalase (MBS726781) ELISA kits were obtained from My BioSource (San Diego, CA, USA). All the procedures were executed in accordance with the manufacturer's directions.

H I/R-induced injury [2] = assay: Apoptotic markers (caspase 3, caspase 9) ELISA after hepatic ischemia-reperfusion; conditions: compared to H I/R animals
Procedure: as §1, §2, §3
Once the reperfusion period was completed, animals' blood was obtained through the hearts, centrifuged at 4000×g for 15 min at 4° C., and stored at −20° C. to be utilized in the biochemical estimation of liver function tests, including ALT, AST, ALP, and LDH. Moreover, hepatic tissues were isolated, washed in cool PBS, and distributed in three portions. […]
Inflammation markers including TNF-α (ab46070), […], IL-6 (ab100772) NFκB (ab133112) and IL-10 (ab214566), ELISA kits were obtained from Abcam Co., (Eugene, OR, USA). […] These markers were measured according to the manufacturer's instructions using a microplate reader SpectraMax i3X (Molecular devices San Jose, CA, USA).

H I/R-induced injury [3] = assay: Hepatic function biomarkers (serum ALT, AST, ALP, LDH) after hepatic ischemia-reperfusion; conditions: compared to H I/R animals
Procedure: as §1, §2, §3, §4, §5
Rat Alanine Aminotransferase (ALT) ELISA kit (ab285264), Aspartate Aminotransferase (AST) ELISA kit (ab263883), and Alkaline Phosphatase (ALP) colorimetric assay kit (ab83369), Lactate Dehydrogenase (LDH) colorimetric assay kit (ab102526) were obtained from Abcam (Boston, MA, USA) and utilized following the manufacturer's instructions.

H I/R-induced injury [4] = assay: Histopathological examination (H&E, Suzuki grading) of ischemic liver
Procedure: as §1, §2
1-Deoxynojirimycin hydrochloride (1-DNJ) was purchased from Merck (Merck & Co., USA, product number D 9305). 1-DNJ was administered by gavage orally after being suspended in 1% carboxymethyl cellulose (CMC) solution. 1-DNJ dose (50 and 100 mg/kg) selection was based on previous studies. A total of 30 Wistar rats were haphazardly assigned into five groups (six rats/group). […]

[5] = 1-DNJ 50 mg/kg/day orally for 2 weeks before H I/R
[6] = 1-DNJ 100 mg/kg/day orally for 2 weeks before H I/R

Cl.OC[C@H]1NC[C@H](O)[C@@H](O)[C@@H]1O [1-DNJ, 1-Deoxynojirimycin hydrochloride]
percentage elevation in CAT (H I/R-induced injury [1]; [5]): 114.24%
percentage elevation in GSH (H I/R-induced injury [1]; [5]): 130.82%
percentage elevation in GST (H I/R-induced injury [1]; [5]): 49.42%
percentage elevation in SOD (H I/R-induced injury [1]; [5]): 60.80%
percentage reduction in MDA (H I/R-induced injury [1]; [5]): 24.18%
percentage reduction in NO (H I/R-induced injury [1]; [5]): 40.77%
percentage elevation in CAT (H I/R-induced injury [1]; [6]): 161.09%
percentage elevation in GSH (H I/R-induced injury [1]; [6]): 194.64%
percentage elevation in GST (H I/R-induced injury [1]; [6]): 99.02%
percentage elevation in SOD (H I/R-induced injury [1]; [6]): 89.51%
percentage reduction in MDA (H I/R-induced injury [1]; [6]): 30.71%
percentage reduction in NO (H I/R-induced injury [1]; [6]): 55.05%
percentage reduction in caspase 3 (H I/R-induced injury [2]; [5]): 27.62%
percentage reduction in caspase 9 (H I/R-induced injury [2]; [5]): 20.09%
percentage reduction in caspase 3 (H I/R-induced injury [2]; [6]): 41.23%
percentage reduction in caspase 9 (H I/R-induced injury [2]; [6]): 24.86%
percentage reduction in ALP (H I/R-induced injury [3]; [5]): 29.75%
percentage reduction in ALT (H I/R-induced injury [3]; [5]): 22.26%
percentage reduction in AST (H I/R-induced injury [3]; [5]): 26.96%
percentage reduction in LDH (H I/R-induced injury [3]; [5]): 24.39%
percentage reduction in ALP (H I/R-induced injury [3]; [6]): 44.53%
percentage reduction in ALT (H I/R-induced injury [3]; [6]): 43.11%
percentage reduction in AST (H I/R-induced injury [3]; [6]): 41.65%
percentage reduction in LDH (H I/R-induced injury [3]; [6]): 48.63%
histopathological changes by Suzuki scores (congestion, vacuolation, necrosis) (H I/R-induced injury [4]; 1-DNJ preconditioned animals (50 and 100 mg/kg/day orally, 2 weeks), related to H I/R animals): substantial reduction in hepatic congestion and hepatocellular vacuolation and necrosis
histopathological findings (H&E sections) (H I/R-induced injury [4]; 1-DNJ pretreated groups (50 and 100 mg/kg/day orally, 2 weeks) before H I/R): re-established hepatic parenchyma, less hepatocellular necrosis, fewer congested hepatic sinusoids, and portal vasculatures with slight vacuolation
